The subject of one series is Liver. Briefly: Intrinsic clearance in Wistar rat hepatocytes at 2 uM. The format is ADME, cell-based, Hepatocyte.
The nature of series [1]: Clearance in Wistar rat. The format is ADME, organism-based. Conditions: in vivo.
Series [2] can be described thus: Volume of distribution in rat at 1 and 5 mg/kg, iv administered as bolus dose. The format is ADME, organism-based. Further details: dose 5 mg/kg, route intravenous. The settings on record: in vivo.
The next series relates to Rattus norvegicus. Put plainly: Hepatic blood flow in rat at 1 and 5 mg/kg, iv administered as bolus dose. The settings on record: in vivo. Further details: dose 5 mg/kg, route intravenous. The format is ADME, organism-based, Liver.
Series [3] can be described thus: AUC (infinity) in Wistar rat at 6 mg/kg, iv administered as a single bolus dose. The format is ADME, organism-based. Further details: time infinity, dose 6 mg/kg, route intravenous. Conditions: plasma.
The nature of series [4]: Clearance in Wistar rat at 6 mg/kg, iv administered as a single bolus dose. Further details: dose 6 mg/kg, route intravenous. Conditions: in vivo. The format is ADME, organism-based.
The nature of series [5]: Volume of distribution at steady state in Wistar rat at 6 mg/kg, iv administered as a single bolus dose. The format is ADME, organism-based. Further details: dose 6 mg/kg, route intravenous. The settings on record: in vivo, read-out: Vdss.
The nature of series [6]: Plasma concentration in Hans Wistar rat hollow fiber model implanted with human COLO205 cells at 6 mg/kg, iv after 24 hrs. The format is ADME, organism-based, COLO 205. Also noted: dose 6 mg/kg, route intravenous.
Series [7] can be described thus: Binding affinity to L-type calcium channel in guinea pig ileum by radioligand displacement assay. The format is tissue-based, Cavia porcellus. On the technique in general: In a radioligand displacement assay an active substance lowers the binding of a labelled ligand.
A short description of series [8]: Binding affinity to sodium channel in guinea pig atria by radioligand displacement assay. Also noted: species or system Cavia porcellus.
Series [9] addresses T1, Kinesin-like protein KIF11 (Homo sapiens, UniProt P52732).
T1 sequence (P52732 whole entry): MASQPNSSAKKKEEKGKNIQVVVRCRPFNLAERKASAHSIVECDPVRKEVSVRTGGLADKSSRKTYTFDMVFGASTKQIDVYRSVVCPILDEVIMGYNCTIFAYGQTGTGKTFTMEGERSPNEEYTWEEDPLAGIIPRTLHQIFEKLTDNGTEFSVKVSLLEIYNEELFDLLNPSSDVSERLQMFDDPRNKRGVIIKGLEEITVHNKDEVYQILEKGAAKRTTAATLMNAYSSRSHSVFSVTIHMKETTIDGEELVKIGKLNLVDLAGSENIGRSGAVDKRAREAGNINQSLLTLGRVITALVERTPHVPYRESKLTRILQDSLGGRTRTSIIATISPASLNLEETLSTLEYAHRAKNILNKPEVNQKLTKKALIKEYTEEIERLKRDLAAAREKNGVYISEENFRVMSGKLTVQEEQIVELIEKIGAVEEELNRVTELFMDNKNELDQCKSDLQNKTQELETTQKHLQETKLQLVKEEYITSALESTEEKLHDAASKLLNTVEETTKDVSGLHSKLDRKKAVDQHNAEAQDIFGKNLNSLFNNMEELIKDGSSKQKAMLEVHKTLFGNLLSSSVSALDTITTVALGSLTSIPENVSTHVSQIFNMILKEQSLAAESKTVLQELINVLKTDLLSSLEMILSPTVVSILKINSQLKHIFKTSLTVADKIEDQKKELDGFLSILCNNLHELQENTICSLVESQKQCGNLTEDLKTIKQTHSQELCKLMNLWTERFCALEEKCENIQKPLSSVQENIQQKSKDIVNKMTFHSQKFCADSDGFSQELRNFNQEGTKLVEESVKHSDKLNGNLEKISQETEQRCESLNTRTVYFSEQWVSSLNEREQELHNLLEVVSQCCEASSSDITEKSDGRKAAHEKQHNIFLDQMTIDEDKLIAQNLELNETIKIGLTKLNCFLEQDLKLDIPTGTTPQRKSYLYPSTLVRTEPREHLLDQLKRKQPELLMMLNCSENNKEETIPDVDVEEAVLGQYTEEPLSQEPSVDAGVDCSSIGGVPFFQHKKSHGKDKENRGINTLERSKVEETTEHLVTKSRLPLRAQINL
Put plainly: Inhibition of human recombinant C-terminal His6-tagged KSP ATPase activity after 1 hr by malachite green assay.

Series [10] in a line: Clearance in nude mouse. Conditions: in vivo. The format is ADME, organism-based.
In a further series the target is T2, Cytochrome P450 1A2 (Homo sapiens, UniProt P05177).
T2 sequence (P05177 whole entry): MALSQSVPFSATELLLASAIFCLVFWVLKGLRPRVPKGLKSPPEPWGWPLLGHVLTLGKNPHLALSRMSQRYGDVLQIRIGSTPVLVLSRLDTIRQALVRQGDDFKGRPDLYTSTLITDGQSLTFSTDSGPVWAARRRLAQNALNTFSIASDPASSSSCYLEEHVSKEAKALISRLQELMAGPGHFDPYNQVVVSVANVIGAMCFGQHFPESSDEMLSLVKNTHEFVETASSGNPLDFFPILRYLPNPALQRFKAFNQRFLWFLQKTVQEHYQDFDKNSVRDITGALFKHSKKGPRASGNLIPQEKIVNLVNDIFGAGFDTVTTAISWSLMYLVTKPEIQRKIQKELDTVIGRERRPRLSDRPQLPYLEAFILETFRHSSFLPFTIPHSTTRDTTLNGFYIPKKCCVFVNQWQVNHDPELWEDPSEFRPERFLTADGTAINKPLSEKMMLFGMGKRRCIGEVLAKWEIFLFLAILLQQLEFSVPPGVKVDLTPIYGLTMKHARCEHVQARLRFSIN
Put plainly: Inhibition of human recombinant CYP1A2. The format is ADME.

For series [11], the target named is T3, Kinesin-like protein KIF23 (Homo sapiens, UniProt Q02241).
T3 sequence (Q02241 whole entry): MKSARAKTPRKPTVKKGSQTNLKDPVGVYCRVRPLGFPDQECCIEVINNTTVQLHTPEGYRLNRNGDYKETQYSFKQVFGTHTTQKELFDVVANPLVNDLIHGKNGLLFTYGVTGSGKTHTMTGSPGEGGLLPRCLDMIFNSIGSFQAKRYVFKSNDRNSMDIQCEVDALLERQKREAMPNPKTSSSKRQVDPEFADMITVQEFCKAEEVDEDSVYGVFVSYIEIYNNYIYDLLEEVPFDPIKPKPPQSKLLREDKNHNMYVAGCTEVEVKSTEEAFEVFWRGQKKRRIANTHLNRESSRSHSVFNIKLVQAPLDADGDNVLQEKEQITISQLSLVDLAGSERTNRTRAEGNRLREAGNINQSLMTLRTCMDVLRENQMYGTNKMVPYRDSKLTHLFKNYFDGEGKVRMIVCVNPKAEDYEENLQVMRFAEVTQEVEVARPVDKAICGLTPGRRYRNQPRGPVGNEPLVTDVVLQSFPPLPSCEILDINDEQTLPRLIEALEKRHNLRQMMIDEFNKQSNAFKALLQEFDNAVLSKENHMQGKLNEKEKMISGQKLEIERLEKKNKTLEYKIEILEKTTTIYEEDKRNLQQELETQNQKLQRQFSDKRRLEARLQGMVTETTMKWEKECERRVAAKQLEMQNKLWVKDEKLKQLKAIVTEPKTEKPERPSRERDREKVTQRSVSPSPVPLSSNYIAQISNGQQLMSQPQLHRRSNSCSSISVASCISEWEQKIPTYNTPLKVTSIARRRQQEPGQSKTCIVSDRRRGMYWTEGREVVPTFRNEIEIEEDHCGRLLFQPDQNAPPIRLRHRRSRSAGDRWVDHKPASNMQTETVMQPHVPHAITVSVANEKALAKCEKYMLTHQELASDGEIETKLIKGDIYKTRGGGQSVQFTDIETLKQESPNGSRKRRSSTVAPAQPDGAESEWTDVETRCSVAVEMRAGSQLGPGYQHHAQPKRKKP
Put plainly: Inhibition of human recombinant GST-MKLP1 after 20 mins by malachite green assay.

1 molecule from ChEMBL document CHEMBL1828558, “Discovery of (+)-N-(3-aminopropyl)-N-[1-(5-benzyl-3-methyl-4-oxo-[1,2]thiazolo[5,4-d]pyrimidin-6-yl)-2-methylpropyl]-4-methylbenzamide (AZD4877), a kinesin spindle protein inhibitor and potential anticancer agent” (J Med Chem, 2011) can be followed below.

Regarding `Cc1ccc(C(=O)N(CCCN)C(c2nc3snc(C)c3c(=O)n2Cc2ccccc2)C(C)C)cc1` (single isomer, unassigned; (+)) [AZD-4877], in the series on Liver, the CL came out at 4 µL/min. Besides, the figures for the clearance in [1], in series [4] and in series [10] were 36 mL/min/kg, 36 mL/min/kg and 17 mL/min/kg, respectively. The Vd in series [2] and in [5] was 10 L/kg in each case. The same molecule showed a QH in the series on Rattus norvegicus of 50%. For the same molecule, the AUC(0-inf) (usually total exposure, with the tail of the curve extrapolated) in series [3] is 2840 ng·h/mL. In addition, the concentration at 24 h in series [6] amounted to 2.8 ng/mL. The IC50 – broadly, the midpoint of a concentration-inhibition curve – in series [7] is 2.7 µM; in [8], greater than 30 µM; in series [9], 0.002 µM; on Cytochrome P450 1A2, greater than 10 µM; in [11], 50 µM.
